According to the NIST ThermoML archive (doi:10.1016/j.jct.2015.01.004):
“And” between values parts separate entries of the source, which are not always exact repeats. Identical values can stand only once. Numbers after ± are expanded uncertainties.

Test: molar heat capacity at constant pressure; xn = mol fraction of the nth substance listed
Details: 100 kPa

[Si] [silicon] + [Li]
Details | molar heat capacity at constant pressure
12.56 K, Crystal of intercomponent compound 2, relaxation calorimeter, x2 = 0.804 | 0.0482 ± 0.0038 J/K/mol and 0.0474 ± 0.0037 J/K/mol
13.23 K, Crystal of intercomponent compound 1, relaxation calorimetry, x2 = 0.81 | 0.0671 ± 0.0053 J/K/mol
13.23 K, Crystal of intercomponent compound 2, relaxation calorimeter, x2 = 0.804 | 0.0553 ± 0.0043 J/K/mol
13.24 K, Crystal of intercomponent compound 2, relaxation calorimeter, x2 = 0.804 | 0.0547 ± 0.0043 J/K/mol
13.94 K, Crystal of intercomponent compound 1, relaxation calorimetry, x2 = 0.81 | 0.0741 ± 0.0058 J/K/mol
13.94 K, Crystal of intercomponent compound 2, relaxation calorimeter, x2 = 0.804 | 0.0639 ± 0.005 J/K/mol
13.95 K, Crystal of intercomponent compound 2, relaxation calorimeter, x2 = 0.804 | 0.0628 ± 0.0049 J/K/mol
14.69 K, Crystal of intercomponent compound 1, relaxation calorimetry, x2 = 0.81 | 0.083 ± 0.0065 J/K/mol
14.69 K, Crystal of intercomponent compound 2, relaxation calorimeter, x2 = 0.804 | 0.0753 ± 0.0059 J/K/mol and 0.0743 ± 0.0058 J/K/mol
15 K, Crystal of intercomponent compound 1, relaxation calorimetry + DSC, x2 = 0.81 | 0.0895 ± 0.007 J/K/mol
15 K, Crystal of intercomponent compound 2, relaxation calorimetry + DSC, x2 = 0.804 | 0.0803 ± 0.007 J/K/mol
15.47 K, Crystal of intercomponent compound 1, relaxation calorimetry, x2 = 0.81 | 0.094 ± 0.0074 J/K/mol
15.47 K, Crystal of intercomponent compound 2, relaxation calorimeter, x2 = 0.804 | 0.0889 ± 0.007 J/K/mol
15.48 K, Crystal of intercomponent compound 2, relaxation calorimeter, x2 = 0.804 | 0.0879 ± 0.0069 J/K/mol
16.3 K, Crystal of intercomponent compound 1, relaxation calorimetry, x2 = 0.81 | 0.1071 ± 0.0084 J/K/mol
16.3 K, Crystal of intercomponent compound 2, relaxation calorimeter, x2 = 0.804 | 0.1049 ± 0.0082 J/K/mol
16.31 K, Crystal of intercomponent compound 2, relaxation calorimeter, x2 = 0.804 | 0.1039 ± 0.0082 J/K/mol
17.17 K, Crystal of intercomponent compound 1, relaxation calorimetry, x2 = 0.81 | 0.1224 ± 0.0096 J/K/mol
17.18 K, Crystal of intercomponent compound 2, relaxation calorimeter, x2 = 0.804 | 0.1233 ± 0.0097 J/K/mol and 0.1231 ± 0.0097 J/K/mol
18.09 K, Crystal of intercomponent compound 1, relaxation calorimetry, x2 = 0.81 | 0.1403 ± 0.011 J/K/mol
18.09 K, Crystal of intercomponent compound 2, relaxation calorimeter, x2 = 0.804 | 0.1454 ± 0.011 J/K/mol
18.1 K, Crystal of intercomponent compound 2, relaxation calorimeter, x2 = 0.804 | 0.1461 ± 0.011 J/K/mol
19.06 K, Crystal of intercomponent compound 1, relaxation calorimetry, x2 = 0.81 | 0.1618 ± 0.013 J/K/mol
19.07 K, Crystal of intercomponent compound 2, relaxation calorimeter, x2 = 0.804 | 0.1725 ± 0.013 J/K/mol and 0.1731 ± 0.014 J/K/mol
20 K, Crystal of intercomponent compound 1, relaxation calorimetry + DSC, x2 = 0.81 | 0.184 ± 0.014 J/K/mol
20 K, Crystal of intercomponent compound 2, relaxation calorimetry + DSC, x2 = 0.804 | 0.201 ± 0.018 J/K/mol
20.09 K, Crystal of intercomponent compound 1, relaxation calorimetry, x2 = 0.81 | 0.187 ± 0.008 J/K/mol
20.09 K, Crystal of intercomponent compound 2, relaxation calorimeter, x2 = 0.804 | 0.205 ± 0.008 J/K/mol
20.1 K, Crystal of intercomponent compound 2, relaxation calorimeter, x2 = 0.804 | 0.203 ± 0.008 J/K/mol
21.16 K, Crystal of intercomponent compound 1, relaxation calorimetry, x2 = 0.81 | 0.219 ± 0.009 J/K/mol
21.16 K, Crystal of intercomponent compound 2, relaxation calorimeter, x2 = 0.804 | 0.24 ± 0.01 J/K/mol
21.17 K, Crystal of intercomponent compound 2, relaxation calorimeter, x2 = 0.804 | 0.242 ± 0.01 J/K/mol
22.28 K, Crystal of intercomponent compound 1, relaxation calorimetry, x2 = 0.81 | 0.255 ± 0.01 J/K/mol
22.3 K, Crystal of intercomponent compound 2, relaxation calorimeter, x2 = 0.804 | 0.283 ± 0.012 J/K/mol and 0.286 ± 0.012 J/K/mol
23.49 K, Crystal of intercomponent compound 2, relaxation calorimeter, x2 = 0.804 | 0.333 ± 0.014 J/K/mol and 0.337 ± 0.014 J/K/mol
23.51 K, Crystal of intercomponent compound 1, relaxation calorimetry, x2 = 0.81 | 0.297 ± 0.012 J/K/mol
24.74 K, Crystal of intercomponent compound 1, relaxation calorimetry, x2 = 0.81 | 0.331 ± 0.014 J/K/mol
24.75 K, Crystal of intercomponent compound 2, relaxation calorimeter, x2 = 0.804 | 0.391 ± 0.016 J/K/mol and 0.396 ± 0.016 J/K/mol
25 K, Crystal of intercomponent compound 1, relaxation calorimetry + DSC, x2 = 0.81 | 0.347 ± 0.014 J/K/mol
25 K, Crystal of intercomponent compound 2, relaxation calorimetry + DSC, x2 = 0.804 | 0.403 ± 0.016 J/K/mol
26.07 K, Crystal of intercomponent compound 2, relaxation calorimeter, x2 = 0.804 | 0.458 ± 0.019 J/K/mol and 0.454 ± 0.019 J/K/mol
26.08 K, Crystal of intercomponent compound 1, relaxation calorimetry, x2 = 0.81 | 0.39 ± 0.016 J/K/mol
27.47 K, Crystal of intercomponent compound 2, relaxation calorimeter, x2 = 0.804 | 0.534 ± 0.022 J/K/mol
27.48 K, Crystal of intercomponent compound 1, relaxation calorimetry, x2 = 0.81 | 0.457 ± 0.019 J/K/mol
27.48 K, Crystal of intercomponent compound 2, relaxation calorimeter, x2 = 0.804 | 0.531 ± 0.022 J/K/mol
28.94 K, Crystal of intercomponent compound 2, relaxation calorimeter, x2 = 0.804 | 0.623 ± 0.025 J/K/mol
28.95 K, Crystal of intercomponent compound 1, relaxation calorimetry, x2 = 0.81 | 0.534 ± 0.022 J/K/mol
28.95 K, Crystal of intercomponent compound 2, relaxation calorimeter, x2 = 0.804 | 0.619 ± 0.025 J/K/mol
30 K, Crystal of intercomponent compound 1, relaxation calorimetry + DSC, x2 = 0.81 | 0.596 ± 0.024 J/K/mol
30 K, Crystal of intercomponent compound 2, relaxation calorimetry + DSC, x2 = 0.804 | 0.689 ± 0.028 J/K/mol
30.48 K, Crystal of intercomponent compound 2, relaxation calorimeter, x2 = 0.804 | 0.723 ± 0.03 J/K/mol
30.49 K, Crystal of intercomponent compound 1, relaxation calorimetry, x2 = 0.81 | 0.625 ± 0.026 J/K/mol
30.5 K, Crystal of intercomponent compound 2, relaxation calorimeter, x2 = 0.804 | 0.718 ± 0.029 J/K/mol
32.11 K, Crystal of intercomponent compound 2, relaxation calorimeter, x2 = 0.804 | 0.835 ± 0.034 J/K/mol
32.12 K, Crystal of intercomponent compound 1, relaxation calorimetry, x2 = 0.81 | 0.728 ± 0.03 J/K/mol
32.12 K, Crystal of intercomponent compound 2, relaxation calorimeter, x2 = 0.804 | 0.832 ± 0.034 J/K/mol
33.83 K, Crystal of intercomponent compound 2, relaxation calorimeter, x2 = 0.804 | 0.964 ± 0.039 J/K/mol
33.84 K, Crystal of intercomponent compound 1, relaxation calorimetry, x2 = 0.81 | 0.848 ± 0.035 J/K/mol
33.84 K, Crystal of intercomponent compound 2, relaxation calorimeter, x2 = 0.804 | 0.961 ± 0.039 J/K/mol
35 K, Crystal of intercomponent compound 1, relaxation calorimetry + DSC, x2 = 0.81 | 0.934 ± 0.038 J/K/mol
35 K, Crystal of intercomponent compound 2, relaxation calorimetry + DSC, x2 = 0.804 | 1.056 ± 0.043 J/K/mol
35.64 K, Crystal of intercomponent compound 2, relaxation calorimeter, x2 = 0.804 | 1.113 ± 0.045 J/K/mol
35.65 K, Crystal of intercomponent compound 2, relaxation calorimeter, x2 = 0.804 | 1.109 ± 0.045 J/K/mol
35.66 K, Crystal of intercomponent compound 1, relaxation calorimetry, x2 = 0.81 | 0.987 ± 0.04 J/K/mol
37.54 K, Crystal of intercomponent compound 2, relaxation calorimeter, x2 = 0.804 | 1.278 ± 0.052 J/K/mol
37.56 K, Crystal of intercomponent compound 1, relaxation calorimetry, x2 = 0.81 | 1.143 ± 0.047 J/K/mol
37.56 K, Crystal of intercomponent compound 2, relaxation calorimeter, x2 = 0.804 | 1.272 ± 0.052 J/K/mol
39.55 K, Crystal of intercomponent compound 2, relaxation calorimeter, x2 = 0.804 | 1.458 ± 0.059 J/K/mol
39.56 K, Crystal of intercomponent compound 1, relaxation calorimetry, x2 = 0.81 | 1.315 ± 0.054 J/K/mol
39.57 K, Crystal of intercomponent compound 2, relaxation calorimeter, x2 = 0.804 | 1.455 ± 0.059 J/K/mol
40 K, Crystal of intercomponent compound 1, relaxation calorimetry + DSC, x2 = 0.81 | 1.35 ± 0.06 J/K/mol
40 K, Crystal of intercomponent compound 2, relaxation calorimetry + DSC, x2 = 0.804 | 1.5 ± 0.06 J/K/mol
41.66 K, Crystal of intercomponent compound 2, relaxation calorimeter, x2 = 0.804 | 1.664 ± 0.068 J/K/mol
41.67 K, Crystal of intercomponent compound 1, relaxation calorimetry, x2 = 0.81 | 1.513 ± 0.062 J/K/mol
41.68 K, Crystal of intercomponent compound 2, relaxation calorimeter, x2 = 0.804 | 1.659 ± 0.068 J/K/mol
43.88 K, Crystal of intercomponent compound 1, relaxation calorimetry, x2 = 0.81 | 1.731 ± 0.07 J/K/mol
43.89 K, Crystal of intercomponent compound 2, relaxation calorimeter, x2 = 0.804 | 1.888 ± 0.077 J/K/mol
43.9 K, Crystal of intercomponent compound 2, relaxation calorimeter, x2 = 0.804 | 1.888 ± 0.077 J/K/mol
45 K, Crystal of intercomponent compound 1, relaxation calorimetry + DSC, x2 = 0.81 | 1.85 ± 0.08 J/K/mol
45 K, Crystal of intercomponent compound 2, relaxation calorimetry + DSC, x2 = 0.804 | 2.01 ± 0.08 J/K/mol
46.22 K, Crystal of intercomponent compound 1, relaxation calorimetry, x2 = 0.81 | 1.98 ± 0.081 J/K/mol
